# Where two headings read alike, the source gives them in different places.
# Target: T1, F508delCFTR (Homo sapiens, UniProt P13569, DEL508-508)
# T1 construct: expressed in transfected cells; host or cells: CFBE41o- human lung-derived epithelial cells (CFBE4lo-F508delCFTR-HRP), doxycycline-inducible
# Experiment: Cell Surface Expression-Horse Radish Peroxidase (CSE-HRP) Assay;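 for Maximum % activity (with co-corrector): co-corrector and positive control are both the same reference corrector at 2 µM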;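 for Maximum % activity (without co-corrector): percent of the 2 µM on-plate positive control corrector response above DMSO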
# Type: cell-based
# Conditions: for Emax / Maximum % activity (with co-corrector): maximum at any tested concentration, normalized to on-plate positive control; for Emax: read-out: Maximum % activity (without co-corrector)
# [1] = test compound without co-corrector
# [2] = test compound without co-corrector, read-out: EC50 (without co-corrector)
# [3] = with co-corrector (2 μM of 3-[(2R,4R)-4-({[1-(2,2-difluoro-1,3-benzodioxol-5-yl)cyclopropyl]carbonyl}amino)-7-methoxy-3,4-dihydro-2H-chromen-2-yl]benzoic acid)
# [4] = with co-corrector (2 μM of 3-[(2R,4R)-4-({[1-(2,2-difluoro-1,3-benzodioxol-5-yl)cyclopropyl]carbonyl}amino)-7-methoxy-3,4-dihydro-2H-chromen-2-yl]benzoic acid), read-out: EC50 (with co-corrector)
# T1 sequence (P13569 with tags, fused parts or gaps DEL508-508): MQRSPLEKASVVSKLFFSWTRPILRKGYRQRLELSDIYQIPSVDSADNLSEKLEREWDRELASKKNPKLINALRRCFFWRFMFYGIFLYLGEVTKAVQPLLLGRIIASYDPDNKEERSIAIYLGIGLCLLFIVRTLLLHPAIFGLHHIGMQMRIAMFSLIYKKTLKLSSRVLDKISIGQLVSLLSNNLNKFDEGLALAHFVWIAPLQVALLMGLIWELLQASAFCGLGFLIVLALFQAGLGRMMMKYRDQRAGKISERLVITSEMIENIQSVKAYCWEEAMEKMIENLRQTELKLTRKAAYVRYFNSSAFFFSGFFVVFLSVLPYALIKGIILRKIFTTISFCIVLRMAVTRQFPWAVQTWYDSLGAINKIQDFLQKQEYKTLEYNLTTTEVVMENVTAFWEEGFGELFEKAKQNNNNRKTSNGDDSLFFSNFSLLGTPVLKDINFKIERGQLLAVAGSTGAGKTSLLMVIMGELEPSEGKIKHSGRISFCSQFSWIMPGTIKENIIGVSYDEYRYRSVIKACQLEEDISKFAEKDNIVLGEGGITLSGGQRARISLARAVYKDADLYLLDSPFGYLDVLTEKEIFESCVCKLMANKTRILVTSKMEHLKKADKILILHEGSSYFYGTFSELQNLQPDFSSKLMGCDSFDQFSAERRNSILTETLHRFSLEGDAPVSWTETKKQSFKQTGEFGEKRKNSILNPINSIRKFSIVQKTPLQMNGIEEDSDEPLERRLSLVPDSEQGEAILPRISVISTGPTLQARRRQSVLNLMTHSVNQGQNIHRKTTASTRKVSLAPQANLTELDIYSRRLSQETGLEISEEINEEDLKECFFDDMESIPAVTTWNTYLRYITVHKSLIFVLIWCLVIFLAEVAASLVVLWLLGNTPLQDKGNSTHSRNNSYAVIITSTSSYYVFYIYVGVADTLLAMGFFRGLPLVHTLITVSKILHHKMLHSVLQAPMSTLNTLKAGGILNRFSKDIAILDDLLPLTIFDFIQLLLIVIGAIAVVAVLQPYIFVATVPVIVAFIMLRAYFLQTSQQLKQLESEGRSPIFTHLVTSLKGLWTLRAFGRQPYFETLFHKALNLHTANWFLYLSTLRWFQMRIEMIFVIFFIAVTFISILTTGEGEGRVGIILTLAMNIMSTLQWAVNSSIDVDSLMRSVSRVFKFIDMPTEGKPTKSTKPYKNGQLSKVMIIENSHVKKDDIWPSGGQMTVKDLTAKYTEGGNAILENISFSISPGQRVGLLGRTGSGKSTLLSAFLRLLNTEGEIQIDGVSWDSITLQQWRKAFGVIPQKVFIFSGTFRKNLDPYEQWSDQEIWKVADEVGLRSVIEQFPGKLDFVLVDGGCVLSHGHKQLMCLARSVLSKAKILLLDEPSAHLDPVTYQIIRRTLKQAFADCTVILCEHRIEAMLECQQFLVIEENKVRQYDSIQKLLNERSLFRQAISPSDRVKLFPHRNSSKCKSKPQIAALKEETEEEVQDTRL
Emax [1],EC50 [2],Maximum % activity (with co-corrector) [3],EC50 [4],SMILES
< 100%,> 10 µM,++ (≥150 and <350),1 to 10 µM,Cc1cc(C(F)(F)F)cc(N[C@@H]2[C@@H](C(C)(C)C)[C@H](C(=O)NS(=O)(=O)C(C)(C)C)N(C(=O)C3CCCCC3)[C@@H]2c2ccccc2)n1 (racemic) [III-50]
< 100%,1 to 10 µM,++ (≥150 and <350),1 to 10 µM,Cc1cc(C(F)(F)F)cc(N[C@@H]2[C@@H](C(C)(C)C)[C@H](C(=O)NS(=O)(=O)C3(C)CC3)N(C(=O)C3CCCCC3)[C@@H]2c2ccccc2)n1 (racemic) [III-51]
< 100%,> 10 µM,++ (≥150 and <350),< 1 µM,Cc1cc(C(F)(F)F)cc(N[C@@H]2[C@@H](C(C)(C)C)[C@H](C(=O)NS(=O)(=O)C3CC3)N(C(=O)C3CCCCC3)[C@@H]2c2ccccc2)n1 (racemic) [III-52]
< 100%,> 10 µM,++ (≥150 and <350),1 to 10 µM,CCS(=O)(=O)NC(=O)[C@H]1[C@H](C(C)(C)C)[C@@H](Nc2cc(C(F)(F)F)cc(C)n2)[C@@H](c2ccccc2)N1C(=O)C1CCCCC1 (racemic) [III-53]
< 100%,1 to 10 µM,++ (≥150 and <350),1 to 10 µM,Cc1cc(C(F)(F)F)cc(N[C@@H]2[C@@H](C(C)(C)C)[C@H](C(=O)NS(=O)(=O)N(C)C)N(C(=O)C3CCCCC3)[C@@H]2c2ccccc2)n1 (racemic) [III-54]
< 100%,> 10 µM,++ (≥150 and <350),1 to 10 µM,CCN(C)S(=O)(=O)NC(=O)[C@H]1[C@H](C(C)(C)C)[C@@H](Nc2cc(C(F)(F)F)cc(C)n2)[C@@H](c2ccccc2)N1C(=O)C1CCCCC1 (racemic) [III-55]
< 100%,> 10 µM,++ (≥150 and <350),1 to 10 µM,Cc1cc(C(F)(F)F)cc(N[C@@H]2[C@@H](C(C)(C)C)[C@H](C(=O)NS(C)(=O)=O)N(C(=O)C3CCCCC3)[C@@H]2c2ccccc2)n1 (racemic) [III-56]
< 100%,> 10 µM,++ (≥150 and <350),1 to 10 µM,O=C(O)[C@@H]1N(C(=O)C2CCCCC2)[C@H](c2ccccc2)[C@H](NCc2ccccc2OC(F)F)C12CC2 (racemic) [III-57]
< 100%,> 10 µM,+ (<150),1 to 10 µM,COc1cccc([C@@H]2[C@H](NCc3ccccc3OC(F)F)[C@@H](C(C)(C)C)[C@H](C(=O)O)N2C(=O)N(C(C)C)C(C)C)n1 (racemic) [III-59]
< 100%,1 to 10 µM,+++ (≥350),1 to 10 µM,COc1ccc(C(F)(F)F)cc1CN[C@@H]1[C@@H](C(C)(C)C)[C@H](C(=O)O)N(C(=O)C2CCCCC2)[C@@H]1c1ccccn1 (racemic) [III-60]
< 100%,1 to 10 µM,+++ (≥350),1 to 10 µM,COc1ccc(Cl)cc1CN[C@@H]1[C@@H](C(C)(C)C)[C@H](C(=O)O)N(C(=O)C2CCCCC2)[C@@H]1c1ccccn1 (racemic) [III-61]
< 100%,1 to 10 µM,++ (≥150 and <350),1 to 10 µM,COc1cccc([C@@H]2[C@H](Nc3cc(C(F)(F)F)cc(C)n3)[C@@H](C(C)(C)C)[C@H](C(=O)O)N2C(=O)C2C3COCC32)n1 (mixture of isomers) [III-62]
< 100%,> 10 µM,+ (<150),> 10 µM,COc1cccc([C@@H]2[C@H](Nc3cc(C(F)(F)F)cc(C)n3)[C@@H](C(C)(C)C)[C@H](C(=O)O)N2C(=O)C2CCCCO2)n1 (mixture of isomers) [III-63]
< 100%,1 to 10 µM,++ (≥150 and <350),1 to 10 µM,COCCOc1ccc(C(F)(F)F)cc1CN[C@@H]1[C@@H](C(C)(C)C)[C@H](C(=O)O)N(C(=O)C2CCCCC2)[C@@H]1c1ccccc1 (racemic) [III-64]
< 100%,> 10 µM,++ (≥150 and <350),1 to 10 µM,COCCn1cc(C(F)(F)F)cc(CN[C@H]2[C@H](C(C)(C)C)[C@@H](C(=O)O)N(C(=O)C3CCCCC3)[C@H]2c2ccccc2)c1=O (racemic) [III-65]
< 100%,> 10 µM,++ (≥150 and <350),1 to 10 µM,CC(C)(C)[C@@H]1[C@@H](NCc2cc(C(F)(F)F)ccc2OCCO)[C@@H](c2ccccc2)N(C(=O)C2CCCCC2)[C@H]1C(=O)O (racemic) [III-66]
100 to 200%,1 to 10 µM,+++ (≥350),1 to 10 µM,COc1cccc([C@@H]2[C@H](NCc3ccc(Cl)cc3OC)[C@@H](C(C)(C)C)[C@H](C(=O)O)N2C(=O)C2CCCCC2)n1 (racemic) [III-67]
< 100%,1 to 10 µM,+++ (≥350),1 to 10 µM,COc1cccc([C@H]2[C@@H](NCc3cc(C(F)(F)F)ccc3OC)[C@H](C(C)(C)C)[C@@H](C(=O)O)N2C(=O)C2CCCOC2)n1 (mixture of isomers) [III-69]
> 200%,1 to 10 µM,+++ (≥350),1 to 10 µM,COc1ccc(C(F)(F)F)cc1CN[C@@H]1[C@@H](C(C)(C)C)[C@H](C(=O)O)N(C(=O)C2C3COCC32)[C@@H]1c1ccccc1N(C)C (mixture of isomers) [III-71]
< 100%,> 10 µM,++ (≥150 and <350),1 to 10 µM,COCCOc1cnc(Cl)cc1CN[C@@H]1[C@@H](C(C)(C)C)[C@H](C(=O)O)N(C(=O)C2CCCCC2)[C@@H]1c1ccccc1 (racemic) [III-72]
< 100%,> 10 µM,++ (≥150 and <350),1 to 10 µM,CC(C)(C)[C@@H]1[C@@H](NCc2cc(Cl)ncc2O)[C@@H](c2ccccc2)N(C(=O)C2CCCCC2)[C@H]1C(=O)O (racemic) [III-73]
< 100%,> 10 µM,++ (≥150 and <350),1 to 10 µM,CC(C)(C)[C@@H]1[C@@H](NCc2cc(C(F)(F)F)cnc2N)[C@@H](c2ccccc2)N(C(=O)C2CCCCC2)[C@H]1C(=O)O (racemic) [III-74]
< 100%,> 10 µM,++ (≥150 and <350),1 to 10 µM,COc1cccc([C@H]2[C@@H](Nc3cccc(OC(F)F)n3)[C@H](C(C)(C)C)[C@@H](C(=O)O)N2C(=O)C2(C)CCCOC2)n1 (mixture of isomers) [III-76]
< 100%,1 to 10 µM,+++ (≥350),1 to 10 µM,COc1ccc(C(F)(F)F)cc1CN[C@H]1[C@H](C(C)(C)C)[C@@H](C(=O)O)N(C(=O)C2(C)CCCOC2)[C@H]1c1ccccc1N(C)C (mixture of isomers) [III-77]
< 100%,> 10 µM,+ (<150),> 10 µM,CC(C)(C)[C@@H]1[C@@H](NCc2cc(S(C)(=O)=O)ccc2O)[C@@H](c2ccccc2)N(C(=O)C2CCCCC2)[C@H]1C(=O)O (racemic) [III-79]
< 100%,> 10 µM,++ (≥150 and <350),1 to 10 µM,COCCOc1ncc(C(F)(F)F)cc1CN[C@@H]1[C@@H](C(C)(C)C)[C@H](C(=O)O)N(C(=O)C2CCCCC2)[C@@H]1c1ccccc1 (racemic) [III-80]
100 to 200%,1 to 10 µM,+++ (≥350),1 to 10 µM,COc1ncc(C(F)(F)F)cc1CN[C@@H]1[C@@H](C(C)(C)C)[C@H](C(=O)O)N(C(=O)C2CCCCC2)[C@@H]1c1ccccc1 (racemic) [III-81]
< 100%,1 to 10 µM,++ (≥150 and <350),1 to 10 µM,COc1cc(Cl)ccc1CN[C@@H]1[C@@H](C(C)(C)C)[C@H](C(=O)O)N(C(=O)C2CCCCC2)[C@@H]1c1ccccn1 (racemic) [III-82]

# Source: US20180099931A1 (AbbVie S.à.r.l., priority 2016, published 2018)
